Experimental data published in ChEMBL document CHEMBL1201862, “PubChem BioAssay data set” (2004).
The source made the active and inactive calls.

Key:
Coagulation factor XII = target: T1, Coagulation factor XII (Homo sapiens, UniProt P00748); type: functional;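 note: activated factor XIIa alpha cleaving a fluorogenic AMC peptide substrate; inhibitor potency from loss of enzyme activity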
T1 sequence (P00748 whole entry): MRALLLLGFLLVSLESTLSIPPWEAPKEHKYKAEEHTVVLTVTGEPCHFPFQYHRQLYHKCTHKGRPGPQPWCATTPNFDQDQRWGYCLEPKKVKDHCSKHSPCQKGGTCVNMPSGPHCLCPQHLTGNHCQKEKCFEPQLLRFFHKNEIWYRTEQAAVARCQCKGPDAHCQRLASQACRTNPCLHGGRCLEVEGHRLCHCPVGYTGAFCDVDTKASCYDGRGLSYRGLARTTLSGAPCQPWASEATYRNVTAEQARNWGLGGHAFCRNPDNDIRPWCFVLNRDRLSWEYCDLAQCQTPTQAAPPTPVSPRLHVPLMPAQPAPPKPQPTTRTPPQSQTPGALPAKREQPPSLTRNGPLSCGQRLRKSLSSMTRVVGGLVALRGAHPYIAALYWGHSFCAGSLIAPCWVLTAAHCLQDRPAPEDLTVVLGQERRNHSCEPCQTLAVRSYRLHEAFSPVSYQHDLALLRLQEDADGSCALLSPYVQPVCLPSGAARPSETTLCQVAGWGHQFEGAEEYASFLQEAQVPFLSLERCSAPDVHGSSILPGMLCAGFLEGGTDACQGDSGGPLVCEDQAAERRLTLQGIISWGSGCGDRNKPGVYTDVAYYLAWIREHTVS

[1] = target: 1-phosphatidylinositol 4,5-bisphosphate phosphodiesterase gamma-1 (Homo sapiens, UniProt P19174); test: Counterscreen for inhibitors of phospholipase C isozymes (PLC-B3): Fluorescence-based biochemical high throughput dose response assay to identify inhibitors of phospholipase C isozymes (PLC-gamma1).
[2] = target: 1-phosphatidylinositol 4,5-bisphosphate phosphodiesterase beta-3 (Homo sapiens, UniProt Q01970); test: Fluorescence-based biochemical high throughput dose response assay to identify inhibitors of phospholipase C isozymes (PLC-B3).
HEK293 = test: viability loss in HEK293T cells – cell-based, ATP luminescence, cherry-pick samples, cytotoxicity control, dose response (AID 687005); type: functional; settings: Homo sapiens;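 note: cells exposed to compound for 48 hours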
[3] = HEK293 Cytotoxicity Assay Measured in Cell-Based System Using Plate Reader - 7071-01_Inhibitor_Dose_CherryPick_Activity_Set2.; type: functional
[4] = growth inhibition of yeast DHODH-expressing 3D7 parasites – SYBR Green, dry powder samples, dose response (AID 1159570); type: functional, cell-based;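 note: parasite growth measured after 72 hours of compound exposure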
[5] = P. falciparum Dd2 growth inhibitors, dose response, SYBR Green, cherry-picked samples (AID 1159567); type: functional, cell-based
[6] = Dd2 malaria parasite growth inhibition potency – SYBR Green, dry powder samples, dose response (AID 1159566); type: functional, cell-based;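 note: potency for growth inhibition with lower SYBR green DNA signal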
[7] = growth inhibition of PfATP4-mutant resistant parasites – NITD609-resistant line, SYBR Green, dry powder, dose response (AID 1159571); type: functional, cell-based;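 note: parasites synchronized at ring stage by sorbitol before testing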
Ephrin type-A receptor 4 = Ephrin type-A receptor 4 (Mus musculus, UniProt Q03137); test: EphA4 ligand-binding antagonists – biochemical, colorimetric, mouse EphA4, primary screen (AID 689); type: functional
[8] = target: Induced myeloid leukemia cell differentiation protein Mcl-1 (Homo sapiens, UniProt Q07820); type: functional
[9] = target: Eukaryotic translation initiation factor 4E (Mus musculus, UniProt P63073); test: blockers of eIF4G binding by eIF4E – biochemical, TR-FRET, dose response (AID 855); type: functional;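 note: potency for disrupting eIF4E binding to eIF4GI seen as loss of FRET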
Caspase-6 = target: T2, Caspase-6 (Homo sapiens, UniProt P55212); test: inhibition of CASP6 peptide cleavage – biochemical, VEID-R110 fluorescence, cherry-pick, dose response (AID 720632)
T2 sequence (P55212 whole entry): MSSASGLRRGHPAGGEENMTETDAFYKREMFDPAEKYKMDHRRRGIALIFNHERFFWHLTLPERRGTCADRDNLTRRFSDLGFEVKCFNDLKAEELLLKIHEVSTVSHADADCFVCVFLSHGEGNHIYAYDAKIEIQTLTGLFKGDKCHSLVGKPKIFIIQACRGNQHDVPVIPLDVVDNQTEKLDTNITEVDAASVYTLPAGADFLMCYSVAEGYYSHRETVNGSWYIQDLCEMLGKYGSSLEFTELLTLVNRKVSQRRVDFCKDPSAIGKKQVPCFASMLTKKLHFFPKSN

Caspase-9 = Caspase-9 (Homo sapiens, UniProt P55211); test: inhibitors of purified CASP9 protease – biochemical, fluorescence, plate reader, cherry-picked samples, selectivity assay for caspase-6 inhibitor project, dose response (AID 743293)
Caspase-7 = Caspase-7 (Homo sapiens, UniProt P55210); test: caspase-7 enzyme inhibition, selectivity check – biochemical, DEVD-R110 fluorescence, cherry-pick, selectivity assay for caspase-6 inhibitor project, dose response (AID 743295); type: functional
Caspase-8 = Caspase-8 (Homo sapiens, UniProt Q14790); test: inhibitors of purified CASP8 protease – biochemical, Z-IETD-R110 fluorescence, cherry-picked samples, selectivity assay for caspase-6 inhibitor project, dose response (AID 743294)
[10] = inhibitors of non-replicating M. tuberculosis, dose response, luciferase, dry powder (AID 651619); type: functional; settings: Mycobacterium tuberculosis
[11] = HepG2 hepatoma cell viability loss – plate reader, dry powder, cytotoxicity control, dose response (AID 651947); type: functional, cell-based
[12] = HeLa cell viability loss – plate reader, dry powder, cytotoxicity control, dose response (AID 651946); type: functional, cell-based
[13] = inhibitors of non-replicating M. tuberculosis, dose response, luciferase, dry powder (AID 651620); type: functional; settings: Mycobacterium tuberculosis
[14] = growth inhibition of replicating M. tuberculosis, dose response, counter-screen, dry powder, IC90 (AID 651617); type: functional; settings: Mycobacterium tuberculosis
Paired box protein Pax-8 = Paired box protein Pax-8 (Homo sapiens, UniProt Q06710); test: PAX8 transcriptional activity inhibition in RMG-I – RMG-I cells, luciferase, cherry-pick, dose response (AID 687027); type: functional, cell-based;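 note: luciferase reporter driven by Pax8 target thyroperoxidase promoter measured by SteadyGlo luminescence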
[15] = inhibitors acting on PAX2 in cells – cell-based, plate reader, dry powder samples, selectivity assay for PAX8 inhibitor project, dose response (AID 743048); type: functional;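 note: HEK293 cells carrying a WT1 promoter luciferase reporter driven by expressed Pax2; potency is for inhibition of Pax2 driven reporter signal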
[16] = COV362 cell viability loss – plate reader, dry powder, SA12, cytotoxicity control for PAX8 inhibitor project, dose response (AID 743144); type: functional, cell-based
[17] = OVCAR-3 cell viability loss – plate reader, dry powder samples, PAX8 inhibitor project, dose response (AID 743044); type: functional, cell-based
[18] = PAX5 cellular inhibition readout – cell-based, plate reader, dry powder samples, selectivity assay for PAX8 inhibitor project, dose response (AID 743047); type: functional;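 note: HEK293 cells carrying a Pax5 driven CD19 promoter luciferase reporter; potency of inhibitors that lower reporter luminescence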
[19] = OVCAR4 cell viability loss – plate reader, dry powder, SA11, cytotoxicity control for PAX8 inhibitor project, dose response (AID 743150); type: functional, cell-based; settings: OVCAR-4
[20] = COV434 cell viability loss – plate reader, dry powder, SA7, cytotoxicity control for PAX8 inhibitor project, dose response (AID 743145); type: functional, cell-based
[21] = OV-90 cell viability loss – plate reader, dry powder, SA8, PAX8 inhibitor project, dose response (AID 743149); type: functional, cell-based
[22] = OVCAR8 cell viability loss – plate reader, dry powder samples, PAX8 project, dose response (AID 743197); type: functional, cell-based; settings: OVCAR-8
[23] = PAX8-dependent cell viability loss – plate reader, dry powder, dose response (AID 743049); type: functional, cell-based
[24] = target: Oxysterols receptor LXR-beta (Homo sapiens, UniProt P55055); type: functional, cell-based;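 note: Cell-based luminescence dose-response assay of agonist activity at LXR, run as a confirmatory counterscreen to a daf-12 agonist screen; HEK293 cells with Gal4-LXR fusion and GAL4-driven luciferase reporter; agonist potency from rising luciferase signal of a Gal4-LXR reporter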
[25] = target: NAD-dependent protein deacylase sirtuin-5, mitochondrial (Homo sapiens, UniProt Q9NXA8); test: blockers of sirtuin-5 peptide desuccinylation – biochemical, fluorescence imaging, cherry-pick, set 6, dose response (AID 720597)
CHO = CHO cell viability loss, potency – luminescence, cytotoxicity control for TLR9-MyD88 binding inhibitor project, dose response (AID 588339); type: functional, cell-based, hamster; settings: Cricetulus griseus;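 note: CHO cells stably coexpressing TLR9 and MyD88 fusions from primary screen; compound exposure lasted 48 hours before viability readout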
Beta Lactamase = Beta Lactamase (Pseudomonas aeruginosa, UniProt Q932Y6); test: BLA reporter interference, concentration series – BLA reporter cells, FRET fluorescence, artefact control for TLR9-MyD88 binding inhibitor project, dose response (AID 588341); type: cell-based;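 note: cell based assay in CHO-K1 cells stably expressing beta-lactamase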
[26] = target: T3, Rac GTPase-activating protein 1 (Homo sapiens, UniProt Q9H0H5); test: blockers of MgcRacGAP-driven Rac1 GTP hydrolysis – biochemical, ADP Hunter fluorescence, primary and confirmatory, confirmation (AID 624330); type: functional
T3 sequence (Q9H0H5 whole entry): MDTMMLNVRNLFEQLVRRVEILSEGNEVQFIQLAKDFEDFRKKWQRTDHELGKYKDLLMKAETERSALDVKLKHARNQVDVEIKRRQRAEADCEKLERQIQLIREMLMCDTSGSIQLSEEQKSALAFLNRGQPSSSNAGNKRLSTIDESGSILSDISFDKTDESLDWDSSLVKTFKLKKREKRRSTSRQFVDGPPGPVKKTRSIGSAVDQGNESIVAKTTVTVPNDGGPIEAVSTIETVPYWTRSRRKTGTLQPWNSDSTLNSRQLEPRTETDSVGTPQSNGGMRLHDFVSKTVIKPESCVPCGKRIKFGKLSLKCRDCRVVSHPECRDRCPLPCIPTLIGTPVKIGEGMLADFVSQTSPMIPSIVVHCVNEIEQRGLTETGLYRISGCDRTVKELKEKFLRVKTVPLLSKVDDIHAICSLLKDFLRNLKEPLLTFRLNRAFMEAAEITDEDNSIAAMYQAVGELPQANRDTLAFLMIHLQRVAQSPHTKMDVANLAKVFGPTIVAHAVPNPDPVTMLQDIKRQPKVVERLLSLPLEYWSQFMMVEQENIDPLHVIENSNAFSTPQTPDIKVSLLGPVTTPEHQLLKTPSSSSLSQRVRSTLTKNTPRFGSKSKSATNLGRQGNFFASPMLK

NS3 = NS3 (Hepatitis C virus, UniProt A3EZJ3); test: NS3h DNA-binding inhibition IC50 – biochemical, fluorescence polarization, ChemBridge library, dose response (AID 743264)
Chain of NS3 (A3EZJ3 whole entry): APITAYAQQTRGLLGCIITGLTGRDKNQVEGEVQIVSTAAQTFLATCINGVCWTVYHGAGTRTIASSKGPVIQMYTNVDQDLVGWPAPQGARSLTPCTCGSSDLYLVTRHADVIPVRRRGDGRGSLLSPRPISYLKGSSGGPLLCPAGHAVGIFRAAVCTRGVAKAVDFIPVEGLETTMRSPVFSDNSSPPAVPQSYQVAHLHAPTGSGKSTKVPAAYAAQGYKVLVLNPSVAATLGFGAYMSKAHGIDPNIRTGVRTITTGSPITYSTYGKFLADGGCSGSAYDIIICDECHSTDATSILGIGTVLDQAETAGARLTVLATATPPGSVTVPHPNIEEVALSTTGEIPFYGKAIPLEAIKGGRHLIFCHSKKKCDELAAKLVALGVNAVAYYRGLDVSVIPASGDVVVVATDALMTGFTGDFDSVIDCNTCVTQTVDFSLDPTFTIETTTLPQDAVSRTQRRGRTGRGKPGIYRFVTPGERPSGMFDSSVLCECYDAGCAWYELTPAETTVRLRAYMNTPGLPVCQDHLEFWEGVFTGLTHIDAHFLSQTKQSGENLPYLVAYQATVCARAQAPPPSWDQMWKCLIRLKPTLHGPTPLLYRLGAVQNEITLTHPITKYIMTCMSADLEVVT

Chain of Eukaryotic translation initiation factor 4E (P63073 whole entry): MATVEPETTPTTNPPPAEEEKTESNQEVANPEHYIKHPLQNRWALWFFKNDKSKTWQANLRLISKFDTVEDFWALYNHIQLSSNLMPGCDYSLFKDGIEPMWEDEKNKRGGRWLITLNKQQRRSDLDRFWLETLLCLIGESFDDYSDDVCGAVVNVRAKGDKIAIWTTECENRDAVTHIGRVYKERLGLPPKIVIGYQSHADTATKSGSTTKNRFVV
Chain of Beta Lactamase (Q932Y6 whole entry): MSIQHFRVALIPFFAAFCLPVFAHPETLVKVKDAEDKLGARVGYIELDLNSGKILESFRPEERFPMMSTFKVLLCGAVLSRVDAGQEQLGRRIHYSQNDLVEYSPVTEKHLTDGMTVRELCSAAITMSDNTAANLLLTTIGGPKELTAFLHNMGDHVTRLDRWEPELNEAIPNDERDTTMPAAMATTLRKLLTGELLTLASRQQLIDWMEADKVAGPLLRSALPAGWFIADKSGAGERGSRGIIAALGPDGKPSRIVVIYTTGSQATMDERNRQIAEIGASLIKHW
Chain of NAD-dependent protein deacylase sirtuin-5, mitochondrial (Q9NXA8 whole entry, the tested form may be a part): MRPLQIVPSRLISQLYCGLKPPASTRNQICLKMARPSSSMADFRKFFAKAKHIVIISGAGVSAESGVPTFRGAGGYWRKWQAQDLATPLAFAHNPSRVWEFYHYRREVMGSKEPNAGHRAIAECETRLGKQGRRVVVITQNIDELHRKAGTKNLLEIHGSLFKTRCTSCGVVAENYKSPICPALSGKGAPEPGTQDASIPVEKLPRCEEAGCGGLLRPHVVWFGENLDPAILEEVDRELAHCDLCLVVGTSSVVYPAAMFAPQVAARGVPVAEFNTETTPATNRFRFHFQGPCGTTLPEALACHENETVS
Chain of Induced myeloid leukemia cell differentiation protein Mcl-1 (Q07820 whole entry): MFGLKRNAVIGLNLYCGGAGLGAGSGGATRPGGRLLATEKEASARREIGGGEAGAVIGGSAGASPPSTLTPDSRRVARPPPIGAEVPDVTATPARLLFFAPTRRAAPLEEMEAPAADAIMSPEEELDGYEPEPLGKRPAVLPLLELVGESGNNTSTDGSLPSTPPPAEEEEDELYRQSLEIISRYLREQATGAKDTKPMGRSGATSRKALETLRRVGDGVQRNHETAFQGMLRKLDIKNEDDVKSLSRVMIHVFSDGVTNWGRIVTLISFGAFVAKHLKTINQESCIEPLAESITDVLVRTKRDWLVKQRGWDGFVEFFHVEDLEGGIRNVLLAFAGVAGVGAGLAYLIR
Chain of Paired box protein Pax-8 (Q06710 whole entry): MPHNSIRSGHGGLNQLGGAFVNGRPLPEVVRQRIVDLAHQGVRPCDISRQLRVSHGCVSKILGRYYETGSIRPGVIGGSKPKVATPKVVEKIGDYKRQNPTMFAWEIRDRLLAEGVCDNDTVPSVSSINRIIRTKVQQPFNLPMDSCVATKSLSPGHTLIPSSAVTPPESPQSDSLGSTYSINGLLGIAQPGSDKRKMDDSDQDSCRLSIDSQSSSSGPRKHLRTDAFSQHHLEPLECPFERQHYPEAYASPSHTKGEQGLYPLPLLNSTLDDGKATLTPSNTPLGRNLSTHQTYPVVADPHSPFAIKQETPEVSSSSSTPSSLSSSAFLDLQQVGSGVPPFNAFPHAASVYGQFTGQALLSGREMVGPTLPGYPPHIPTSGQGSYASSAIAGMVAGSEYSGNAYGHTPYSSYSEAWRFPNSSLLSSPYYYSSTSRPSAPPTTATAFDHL
Chain of Oxysterols receptor LXR-beta (P55055 whole entry, the tested form may be a part): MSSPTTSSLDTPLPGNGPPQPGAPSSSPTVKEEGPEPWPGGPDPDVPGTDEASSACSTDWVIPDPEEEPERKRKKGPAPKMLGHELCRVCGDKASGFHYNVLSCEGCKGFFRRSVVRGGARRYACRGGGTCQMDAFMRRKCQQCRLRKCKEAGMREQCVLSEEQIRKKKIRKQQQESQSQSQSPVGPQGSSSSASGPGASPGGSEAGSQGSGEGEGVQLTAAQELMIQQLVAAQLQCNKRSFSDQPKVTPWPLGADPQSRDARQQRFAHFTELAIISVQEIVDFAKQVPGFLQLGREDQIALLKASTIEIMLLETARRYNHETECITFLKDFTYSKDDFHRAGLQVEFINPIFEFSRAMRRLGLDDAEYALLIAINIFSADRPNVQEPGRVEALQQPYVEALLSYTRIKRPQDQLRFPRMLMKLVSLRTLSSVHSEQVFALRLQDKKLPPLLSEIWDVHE
Chain of Caspase-8 (Q14790 217-374 limits assumed): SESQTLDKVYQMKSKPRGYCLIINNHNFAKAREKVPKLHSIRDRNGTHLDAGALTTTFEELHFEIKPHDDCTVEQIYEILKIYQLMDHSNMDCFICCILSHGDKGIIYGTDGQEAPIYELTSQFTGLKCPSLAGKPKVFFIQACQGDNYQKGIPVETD
Chain of Caspase-8 (Q14790 385-479 limits assumed): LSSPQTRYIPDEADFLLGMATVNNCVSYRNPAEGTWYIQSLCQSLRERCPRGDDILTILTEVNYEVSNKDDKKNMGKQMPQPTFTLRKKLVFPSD
Chain of Caspase-7 (P55210 24-198 limits assumed): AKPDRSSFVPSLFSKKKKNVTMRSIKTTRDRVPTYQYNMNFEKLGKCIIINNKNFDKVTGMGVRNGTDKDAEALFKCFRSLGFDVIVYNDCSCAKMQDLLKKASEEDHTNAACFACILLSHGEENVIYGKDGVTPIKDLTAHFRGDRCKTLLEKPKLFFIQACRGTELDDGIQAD
Chain of Caspase-7 (P55210 207-303 limits assumed): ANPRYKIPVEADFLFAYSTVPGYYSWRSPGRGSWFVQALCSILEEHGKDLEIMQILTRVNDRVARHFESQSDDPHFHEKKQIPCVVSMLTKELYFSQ
Chain of 1-phosphatidylinositol 4,5-bisphosphate phosphodiesterase beta-3 (Q01970 whole entry): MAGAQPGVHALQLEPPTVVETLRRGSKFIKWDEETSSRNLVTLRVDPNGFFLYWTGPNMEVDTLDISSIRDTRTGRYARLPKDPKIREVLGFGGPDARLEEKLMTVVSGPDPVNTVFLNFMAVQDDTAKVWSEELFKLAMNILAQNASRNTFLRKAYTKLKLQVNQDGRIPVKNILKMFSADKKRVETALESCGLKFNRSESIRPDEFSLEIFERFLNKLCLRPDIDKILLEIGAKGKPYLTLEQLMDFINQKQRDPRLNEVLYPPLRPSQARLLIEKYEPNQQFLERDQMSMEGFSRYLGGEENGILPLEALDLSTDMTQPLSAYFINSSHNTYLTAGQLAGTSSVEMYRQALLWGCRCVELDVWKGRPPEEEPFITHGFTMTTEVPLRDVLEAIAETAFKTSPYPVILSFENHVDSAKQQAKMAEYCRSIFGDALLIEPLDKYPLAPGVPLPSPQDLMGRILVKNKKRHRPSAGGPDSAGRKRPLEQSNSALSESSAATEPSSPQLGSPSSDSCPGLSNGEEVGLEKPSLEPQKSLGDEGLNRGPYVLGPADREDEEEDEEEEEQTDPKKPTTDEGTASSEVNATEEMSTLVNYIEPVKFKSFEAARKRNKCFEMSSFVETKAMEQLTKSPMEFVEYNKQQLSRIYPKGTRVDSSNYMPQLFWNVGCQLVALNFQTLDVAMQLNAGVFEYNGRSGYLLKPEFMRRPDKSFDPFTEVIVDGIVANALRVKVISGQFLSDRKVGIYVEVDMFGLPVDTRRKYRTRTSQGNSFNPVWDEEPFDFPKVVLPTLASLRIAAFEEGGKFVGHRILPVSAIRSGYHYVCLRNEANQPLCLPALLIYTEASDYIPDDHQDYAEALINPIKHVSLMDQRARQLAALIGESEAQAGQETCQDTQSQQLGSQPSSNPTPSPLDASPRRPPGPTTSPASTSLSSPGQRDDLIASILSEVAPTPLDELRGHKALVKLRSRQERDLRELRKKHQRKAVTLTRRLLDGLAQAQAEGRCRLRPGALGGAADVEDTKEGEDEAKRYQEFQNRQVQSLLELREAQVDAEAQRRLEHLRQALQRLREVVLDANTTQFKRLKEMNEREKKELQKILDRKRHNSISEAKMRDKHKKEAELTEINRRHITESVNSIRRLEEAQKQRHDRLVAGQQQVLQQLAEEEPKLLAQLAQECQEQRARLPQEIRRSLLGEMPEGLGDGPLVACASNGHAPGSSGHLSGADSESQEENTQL
Chain of Caspase-9 (P55211 1-315 limits assumed): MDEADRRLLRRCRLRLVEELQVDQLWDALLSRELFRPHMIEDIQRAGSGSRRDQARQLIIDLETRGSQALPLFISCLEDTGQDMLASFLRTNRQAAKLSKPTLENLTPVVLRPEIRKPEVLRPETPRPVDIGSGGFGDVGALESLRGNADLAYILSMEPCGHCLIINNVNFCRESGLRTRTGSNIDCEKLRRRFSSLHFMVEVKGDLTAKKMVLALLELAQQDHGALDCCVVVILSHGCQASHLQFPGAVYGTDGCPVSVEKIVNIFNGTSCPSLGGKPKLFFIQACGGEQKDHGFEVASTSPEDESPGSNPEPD
Chain of Caspase-9 (P55211 331-416 limits assumed): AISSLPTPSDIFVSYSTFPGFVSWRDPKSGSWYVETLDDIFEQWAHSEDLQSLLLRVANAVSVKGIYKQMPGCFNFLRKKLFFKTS

## CS(=O)(=O)c1nc(-c2ccc(Br)cc2)n[nH]1
Coagulation factor XII
  IC50: > 50 µM (inactive)
[1]
  IC50: 50.8 µM (inactive)
[2]
  IC50: > 122 µM (inactive)

## COc1ccc(C#Cc2ccc3c(c2)O[C@H](CN(C)C(=O)Nc2cccc(OC)c2)[C@H](C)CN([C@@H](C)CO)S3(=O)=O)cc1
HEK293
  AC50: 26.3 µM (active)
[3]
  AC50: 26.3 µM (active)
[4]
  AC50: 2.21 µM (active)
[5]
  AC50: 1.46 µM (active)
[6]
  AC50: 1.06 µM (active)
[7]
  AC50: 1.69 µM (active)

## COc1ccc(S(=O)(=O)Nc2cc(Sc3nc[nH]n3)c(O)c3ccccc23)cc1
Ephrin type-A receptor 4
  IC50: 6.77 µM (active)
[8]
  IC50: 7.73 µM (active)
[9]
  IC50: > 64 µM (inactive)
Caspase-6
  AC50: 0.998 µM (active)
Caspase-9
  AC50: 31.6 µM (active)
Caspase-7
  AC50: 8.7 µM (active)
Caspase-8
  AC50: 22 µM (active)

## [O-][S+](Cc1cn(Cc2ccccc2)nn1)c1nnc(-c2ccc(Cl)cc2)o1 (stereo not drawn)
[10]
  IC90: 2 µM (active)
[11]
  AC50: 19.6 µM (active)
[12]
  AC50: 24.2 µM (active)
[13]
  IC90: 2 µM (active)
[14]
  IC90: 125 µM (active)

## C[C@@H]1CN([C@@H](C)CO)C(=O)Cc2cc(NS(=O)(=O)c3ccccc3)ccc2O[C@H]1CN(C)Cc1ccc(C(F)(F)F)cc1
Paired box protein Pax-8
  AC50: 6.03 µM (active)
[15]
  AC50: 17 µM (active)
[16]
  AC50: 31.6 µM (active)
[17]
  AC50: 23.4 µM (active)
[18]
  AC50: 18.8 µM (active)
[19]
  AC50: 45.6 µM (active)
[20]
  AC50: 32.6 µM (active)
[21]
  AC50: 28.5 µM (active)
[22]
  AC50: 23.9 µM (active)
[23]
  AC50: 11.1 µM (active)

## COc1ccccc1C(=O)NC(=S)Nc1cccnc1Cl
[24]
  EC50: > 67.5 µM (inactive)
cells
  EC50: > 67.5 µM (inactive)

## C[C@H](CO)N1C[C@H](C)[C@H](CN(C)C)Oc2ccc(NC(=O)Nc3ccc(F)cc3)cc2CC1=O
[25]
  AC50: 11.5 µM (active)

## O=C1C=CC(=O)N1c1ccccc1N1C(=O)C=CC1=O
CHO
  IC50: 2.55 µM (active)
Beta Lactamase
  IC50: 13.6 µM (inactive)
[26]
  IC50: 62.2 µM (active)
NS3
  IC50: 34.9 µM (inactive)
